Where a name gives a salt, the structure may show the parent alone.
The molecules below were run on influx of neutrophils to the lung in LPS-challenged rats (assay: Rat LPS neutrophilia model). Conditions: intratracheal, LPS aerosol 100 ug/ml 15 min, lavage 4 hours later, in at least one of the range of conditions tested, significant p<0.05, nonsignificant p>0.05.
Type: in vivo
Protocol: The effect of compounds on the influx of neutrophils to the lung in LPS-challenged rats is evaluated as follows. The test compound is suspended in one of the following solutions: 0.5% tween 80/PBS, 0.5% tween 80/saline, 10% EtOH/saline (with pH adjusted to 2.0, or 8.0 with HCl, or unadjusted), Saline @ pH 2.0, 6.5 or 8.0, 0.5% Tragacanth, 1% DMSO/20% Encapsin/Saline, or acidified 5% Tragacanth. The suspension process may be aided by the use of a glass homogenizer. For intratracheal administration, the animals are anesthetized with inhaled isoflurane and placed in a supine position, the trachea is intubated with a steel gavage needle (1.5 inch, 22 gauge, small ball) or a Penn-Century Microsprayer Aerosolizer (model IA-IB) and 200 ul of dosing solution is delivered. The animals are visually monitored during the recovery process, which typically occurs within two minutes. It is noted that the test compounds may be alternatively administered via the microsprayer in a dry powder blend with a suitable excipient, such as lactose.
Rats treated with compound or vehicle (15 min-24 hours pretreatment) are exposed to an LPS aerosol (100 ug/ml) for 15 min. Four hours later the rats are euthanized with pentobarbital (100 mg/kg, i.p.) and the airways are lavaged with 5 washes of 5 ml of phosphate buffered saline. The harvested cells are stained (Diffquick) and counted to determine total and differential cell data. […] Inhibition of neutrophil levels relative to no compound controls is calculated based on the differential counts.
The data is obtained as % inhibition using a particular concentration and pretreat time.

SMILES | inhibition of neutrophilia (neutrophil levels in lung lavage relative to no compound controls)
CCN(CC)CCCNc1nc(-c2cc(C(=O)NCC3CCCCC3)ccc2C)c2ccc(=O)n(-c3c(F)cccc3F)c2n1 [Example 135, N-(cyclohexylmethyl)-3-[2-{[3-(diethylamino)propyl]amino}-8-(2,6-difluorophenyl)-7-oxo-7,8-dihydropyrido[2,3-d]pyrimidin-4-yl]-4-methylbenzamidetrifluoroacetate] | inactive
Cc1ccc(NC(=O)c2cccc3cc[nH]c23)cc1-c1nc(NC(CO)CO)nc2c1ccc(=O)n2-c1c(F)cccc1F [Example 44, N-[3-(8-(2,6-difluorophenyl)-2-{[2-hydroxy-1-(hydroxymethyl)ethyl]amino}-7-oxo-7,8-dihydropyrido[2,3-d]pyrimidin-4-yl)-4-methylphenyl]-1H-indole-7-carboxamide trifluoroacetate] | statistically significant inhibition
Cc1ccc(C(=O)NCCc2ccccc2)cc1-c1nc(NC2CC(C)(C)NC(C)(C)C2)nc2c1ccc(=O)n2-c1c(F)cccc1F [Example 28, 3-{8-(2,6-difluorophenyl)-7-oxo-2-[(2,2,6,6-tetramethyl-4-piperidinyl)amino]-7,8-dihydropyrido[2,3-d]pyrimidin-4-yl}-4-methyl-N-(2-phenylethyl)benzamide] | statistically nonsignificant inhibition
CNCCNc1nc(-c2cc(C(=O)NCCc3ccccc3)ccc2C)c2ccc(=O)n(-c3c(F)cccc3F)c2n1 [Example 29, 3-(8-(2,6-difluorophenyl)-2-{[2-(methylamino)ethyl]amino}-7-oxo-7,8-dihydropyrido[2,3-d]pyrimidin-4-yl)-4-methyl-N-(2-phenylethyl)benzamide] | statistically significant inhibition
CNCCNc1nc(-c2cc(C(=O)Nc3nccs3)ccc2C)c2ccc(=O)n(-c3c(F)cccc3F)c2n1 [Example 61, 3-(8-(2,6-difluorophenyl)-2-{[2-(methylamino)ethyl]amino}-7-oxo-7,8-dihydropyrido[2,3-d]pyrimidin-4-yl)-4-methyl-N-1,3-thiazol-2-ylbenzamide] | statistically significant inhibition
CCN(CC)CCCNc1nc(-c2cc(C(=O)N[C@H](C)C(C)C)ccc2C)c2ccc(=O)n(-c3c(F)cccc3F)c2n1 [Example 130] | statistically nonsignificant inhibition
Cc1ccc(C(=O)NC2CCC2)cc1-c1nc(N2CCC(N3CCC(C)CC3)CC2)nc2c1ccc(=O)n2-c1c(F)cccc1F [Example 175, N-cyclobutyl-3-[8-(2,6-difluorophenyl)-2-(4-methyl-1,4′-bipiperidin-1′-yl)-7-oxo-7,8-dihydropyrido[2,3-d]pyrimidin-4-yl]-4-methylbenzamide] | inactive
Cc1ccc(C(=O)Nc2nccs2)cc1-c1nc(N2CCC(N)CC2)nc2c1ccc(=O)n2-c1c(F)cccc1F [Example 73, 3-[2-(4-amino-1-piperidinyl)-8-(2,6-difluorophenyl)-7-oxo-7,8-dihydropyrido[2,3-d]pyrimidin-4-yl]-4-methyl-N-1,3-thiazol-2-ylbenzamide] | statistically significant inhibition
Cc1ccc(C(=O)NC2CC2)cc1-c1nc(N2CCC(N)CC2)nc2c1ccc(=O)n2-c1c(F)cccc1F [Example 22, 3-[2-(4-amino-1-piperidinyl)-8-(2,6-difluorophenyl)-7-oxo-7,8-dihydropyrido[2,3-d]pyrimidin-4-yl]-N-cyclopropyl-4-methylbenzamide] | statistically significant inhibition
Cc1ccc(C(=O)Nc2nccs2)cc1-c1nc(N(C)CCCN(C)C)nc2c1ccc(=O)n2-c1c(F)cccc1F [Example 107, 3-{8-(2,6-difluorophenyl)-2-[[3-(dimethylamino)propyl](methyl)amino]-7-oxo-7,8-dihydropyrido[2,3-d]pyrimidin-4-yl}-4-methyl-N-1,3-thiazol-2-ylbenzamide] | statistically significant inhibition
Cc1ccc(C(=O)NC2CC2)cc1-c1nc(NCc2ncc[nH]2)nc2c1ccc(=O)n2-c1c(F)cccc1F [Example 23, N-cyclopropyl-3-{8-(2,6-difluorophenyl)-2-[(1H-imidazol-2-ylmethyl)amino]-7-oxo-7,8-dihydropyrido[2,3-d]pyrimidin-4-yl}-4-methylbenzamide] | statistically nonsignificant inhibition
Cc1ccc(C(=O)Nc2nccs2)cc1-c1nc(NCCCNC(C)(C)C)nc2c1ccc(=O)n2-c1c(F)cccc1F [Example 102, 3-[8-(2,6-difluorophenyl)-2-({3-[(1,1-dimethylethyl)amino]propyl}amino)-7-oxo-7,8-dihydropyrido[2,3-d]pyrimidin-4-yl]-4-methyl-N-1,3-thiazol-2-ylbenzamide] | statistically nonsignificant inhibition
CCN(CC)CCCNc1nc(-c2cc(C(=O)Nc3ccccc3)ccc2C)c2ccc(=O)n(-c3c(F)cccc3F)c2n1 [Example 147, 3-[2-{[3-(diethylamino)propyl]amino}-8-(2,6-difluorophenyl)-7-oxo-7,8-dihydropyrido[2,3-d]pyrimidin-4-yl]-4-methyl-N-phenylbenzamide] | statistically nonsignificant inhibition
Cc1ccc(C(=O)NC2CCCC2)cc1-c1nc(NCc2ncc[nH]2)nc2c1ccc(=O)n2-c1c(F)cccc1F [Example 76, N-cyclopentyl-3-{8-(2,6-difluorophenyl)-2-[(1H-imidazol-2-ylmethyl)amino]-7-oxo-7,8-dihydropyrido[2,3-d]pyrimidin-4-yl}-4-methylbenzamide] | statistically nonsignificant inhibition
Cc1ccc(C(=O)NC2CCCC2)cc1-c1nc(N2CCC(N)CC2)nc2c1ccc(=O)n2-c1c(F)cccc1F [Example 70, 3-[2-(4-amino-1-piperidinyl)-8-(2,6-difluorophenyl)-7-oxo-7,8-dihydropyrido[2,3-d]pyrimidin-4-yl]-N-cyclopentyl-4-methylbenzamide] | statistically nonsignificant inhibition
CCN(CC)CCCNc1nc(-c2cc(C(=O)NCCOC)ccc2C)c2ccc(=O)n(-c3c(F)cccc3F)c2n1 [Example 134, 3-[2-{[3-(diethylamino)propyl]amino-}8(2,6-difluorophenyl)-7-oxo-7,8-dihydropyrido[2,3-d]pyrimidin-4-yl]-4-methyl-N-[2-(methyloxy)ethyl]benzamidetrifluoroacetate] | statistically nonsignificant inhibition
CNCCNc1nc(-c2cc(C(=O)NC3CCCC3)ccc2C)c2ccc(=O)n(-c3c(F)cccc3F)c2n1 [Example 58, N-cyclopentyl-3-(8-(2,6-difluorophenyl)-2-{[2-(methylamino)ethyl]amino}-7-oxo-7,8-dihydropyrido[2,3-d]pyrimidin-4-yl)-4-methylbenzamide] | statistically significant inhibition
